The record followed here is the OPERA property sets (Mansouri et al. 2018).

Peptide text beside a SMILES is read from it. * marks the point of attachment. Boc = CC(C)(C)OC(=O)*

Conditions in one data set: not given
In turn, `c1ccc(Cc2ccccc2)cc1` gave a logP of 4.14.

In turn, `N#Cc1ccc2nc(N)[nH]c2c1` returned a logP of 1.13.

Consider `COCC(=O)N(c1c(C)cccc1C)C(C)C(=O)OC` (configuration not stated), for which the logP stood at 1.65.

As for `CC(=O)N(c1ccccc1)c1ccccc1`, the logP came out at 2.02.

The compound `CCCN(CCC)S(=O)(=O)c1ccc(C(=O)O)cc1` displayed a log partition coefficient (logP) of 3.21.

In the case of `NC(=O)c1cccc(O)c1`, the logP stood at 0.39.

As to `NC(=O)c1ccncc1`, the logP was -0.28.

`CCCCOc1cccc(C=C(C(=O)OCC)C(=O)OCC)c1`: the logP is 4.03.

The compound `CON(C)C(=O)Nc1cccc(O)c1` had a logP of 0.83.

For the compound `NS(=O)(=O)c1ccc(S(N)(=O)=O)cc1`, the logP is -0.96.

For `CC(C)C(NC(=O)C(Cc1ccccc1)NC(=O)OC(C)(C)C)C(=O)O` (stereo not drawn) (Boc-Phe-Val-OH; configuration not given here), the logP worked out at 2.88.

`CC(C)CN` yielded a logP of 0.73.

Turning to `O=C(O)COc1ccccc1O`, the logP came to 0.85.

In turn, `c1ccc2c(c1)CCCC2` displayed a logP of 3.49.

On to `CC(C)CC(N)C(=O)OCn1ncc2c(=O)[nH]cnc21` (configuration not stated), for which the logP is 0.19.

`Cc1cc(C#N)ccn1`: the logP amounted to 0.81.

Turning to `O=C(O)Cc1ccc(OCCc2ccccc2)c(Cl)c1`, the logP was found to be 3.53.

`Cc1cccc(S(N)(=O)=O)c1`: the logP is 0.85.

As for `O=C(c1ccco1)C(O)c1ccco1` (configuration not stated), the logP was 0.54.

The compound `C[C@@H]1C[C@@H]([C@H](O)CC2CC(=O)NC(=O)C2)C(=O)[C@@H](C)C1` gave a logP of 0.55.

Take `NC(=O)NNC(=O)c1ccccc1`: the logP is -0.5.

The compound `CSc1ccc2c(c1)N(CCC1CCCCN1C)c1ccccc1S2` (configuration not stated) displayed a logP of 5.9.

Compound `CCc1cccnc1` came in with a logP of 1.66.

`CC1OC(OC2C(O)CC(OC3C(O)CC(OC4CCC5(C)C(CCC6C5CCC5(C)C(C7COC(=O)C7)CCC65O)C4)OC3C)OC2C)CC(O)C1O` (configuration not stated) registered a logP of 2.9.

Compound `CSc1ccccc1` yielded a logP of 2.74.

Compound `CCC(C)OC(C)=O` (configuration not stated) displayed a logP of 1.72.

In turn, `COc1c(Cl)ccc(Cl)c1C(=O)O` gave a logP of 2.21.

Turning to `CCS(=O)(=O)c1ccc(S(N)(=O)=O)c2ccccc12`, the logP was 1.24.

The compound `NC(=O)Nc1ccccc1Cl` registered a logP of 1.27.

With `NC(=O)c1cccc(C(N)=O)c1`, the logP was -0.21.

`CN(C)c1ccc(C=C[N+](=O)[O-])cc1` showed a logP of 2.67.

`CN(C)C(N(C)C)=S(I)c1cc(Cl)c(Cl)cc1Cl` (configuration not stated) came in with a lipophilicity (logP) of 0.68.

For the compound `Cc1cc(C)ncn1`, the logP stood at 0.62.

For `NC(=O)Nc1cccc2cccnc12`, the logP was 1.62.

In turn, `NC(=O)c1cccc(Br)c1` gave a logP of 1.65.

Take `O=C(O)c1ccc(Cl)cc1[N+](=O)[O-]`: the logP was 2.08.

On to `O=C(CNC(=O)c1ccccc1)Oc1cccc([N+](=O)[O-])c1`, for which the logP came to 2.46.

In turn, `C=CCCC=C` returned a logP of 2.87.

Compound `CCC1(C(C)CC(C)O)C(=O)NC(=O)NC1=O` (configuration not stated) registered a logP of 0.35.

For `CCC(CC)C(=O)NC(CO)C(O)c1ccc([N+](=O)[O-])cc1` (configuration not stated), the logP came to 1.71.

In turn, `C1CC1` yielded a logP of 1.72.

`CCc1ccc(C(=O)OCCN(C)C)cc1`: the logP was 3.15.

The compound `O=P(c1ccccc1)(c1ccccc1)c1ccccc1` registered a logP of 2.83.

The compound `CCCCC(NC(C)=O)C(=O)OC` (configuration not stated) returned a logP of 0.79.

With `CCCOC(N)=O`, the logP came to 0.36.

Regarding `CC12CCC(=O)C=C1CCC1C2C(O)CC2(C)C1CCC2(O)C(=O)COC(=O)CCCCCC(=O)O` (configuration not stated), the logP amounted to 3.26.

Regarding `CC(=O)CCC(=O)O`, the logP is -0.49.

In the case of `CNC(=O)Oc1ccccc1I`, the logP turned out to be 1.94.

With `NC(=S)c1ccccc1`, the logP was 1.49.

The compound `CCCCCCCCN(C)/N=N/c1ccc(C(N)=O)cc1` showed a logP of 4.7.

Compound `CCc1cccc2cccnc12` had a logP of 2.93.

In turn, `Nc1cccc(CO)c1` yielded a logP of -0.05.

`CNC(=NC#N)NCCSCc1ncccc1OC` showed a logP of 0.97.

In the case of `CCCNCC(C)C`, the logP amounted to 2.07.

For the compound `CN(C)c1ccc(C#N)cc1`, the logP was 2.2. This logP and that of the compound before are within 0.2 log units of each other.

As for `CCCCCc1cn[nH]c1`, the logP turned out to be 2.96.

Compound `FC(F)(F)c1nc2cc(Cl)c(Cl)cc2[nH]1` had a logP of 3.49.

As for `COC(=O)CNC(=O)c1ccc(N)cc1`, the logP is -0.23.

Consider `CC(=O)NC1=CC(=O)c2ccccc2C1=O`, for which the logP stood at 1.29.

As to `C=CCSc1ccccc1`, the logP stood at 3.51.

As for `O=C(O)COc1ccc(Cl)c(Br)c1`, the logP stood at 2.75.

Regarding `Brc1nc(Br)c(Br)[nH]1`, the logP is 1.96.

As to `C1=Cc2ccccc2C1`, the logP amounted to 2.92.

`Cc1cccc(OCC(=O)O)c1` displayed a logP of 1.78.

In turn, `Clc1c(Cl)c(Cl)c2n[nH]nc2c1Cl` had a logP of 4.17.

As for `CC(=O)c1ccc(C#N)cc1`, the logP turned out to be 1.22.

In turn, `CC(=O)Nc1ccc(I)cc1` displayed a logP of 2.71.

Take `CCCCNc1ccccc1OC`: the logP turned out to be 2.85.

For `CCN(CC)CCNC(=O)c1cc(Cl)ccc1OC`, the logP is 3.11.

`C[C@]12CC[C@@H]3c4ccc(O)cc4CC[C@H]3[C@@H]1C[C@@H](O)[C@@H]2O`: the logP was determined as 2.45.

Regarding `C1CCOC1`, the logP is 0.46.

Compound `Nc1cc2c3ccccc3ccc2c2ccccc12` showed a logP of 4.99.

`CNC(=O)OC` gave a logP of -0.06.

`COc1ccc(CC(C)N)cc1` (configuration not stated) displayed a logP of 1.77.

In turn, `C=CCCCCCC` gave a logP of 4.57.

Compound `C=CCOC(C)=O` showed a logP of 0.97.

For `CSc1ncc2ccccc2n1`, the logP worked out at 2.5.

For `Nc1ccc2[nH]ccc2c1`, the logP was 0.7.

In turn, `CCCOC(=O)c1ccccc1` had a logP of 3.01.

`O=C(O)Cc1cccc(Cl)c1` displayed a logP of 2.09.

As for `CNC(=O)Oc1cccc(Cl)c1`, the logP came to 2.03.

The compound `CCC1(C2=CC3CCC(C2)C3)C(=O)NC(=O)NC1=O` (configuration not stated) yielded a logP of 2.53.

With `CN(Cc1ccc(C#N)cc1)N=O`, the logP turned out to be 0.95.

`CC(C)c1ccccc1O` showed a logP of 2.88.

Consider `CNC(=O)Oc1cccc(OC)c1`, for which the logP is 1.3.

For the compound `CCCCOC`, the logP was determined as 1.66.

Turning to `O=C1CC(Sc2ccccn2)N1` (configuration not stated), the logP came out at 0.61.

In turn, `CCCCCCn1nnc2ccccc21` had a logP of 3.7.

`COP(=S)(OC)Oc1ccc(Cl)cc1C#N` came in with a logP of 3.41.

Regarding `Cn1c(=O)sc2ccccc21`, the logP stood at 1.98.

Take `CNc1ccccc1[N+](=O)[O-]`: the logP came to 2.18.

Turning to `CC(C)(c1ccc(O)cc1)c1ccc(O)cc1`, the logP came to 3.32.

For the compound `CC(C)(C)c1ccccc1`, the logP amounted to 4.11.

Consider `Cc1nc(-c2ccccc2)c2ccccc2n1`, for which the logP came to 3.1.

In turn, `CCCCOC(=O)CNC(=O)CCCCSc1[nH]cnc2ncnc1-2` returned a logP of 1.39.

In turn, `CC(Cl)[N+](=O)[O-]` (configuration not stated) returned a logP of 1.1.

Consider `CCCCCCC(C)(C)c1ccc(C2CC(O)CCC2CCCCO)c(O)c1` (configuration not stated), for which the logP came to 6.68.

`C=CCOC(=O)c1ccccc1C(=O)OCC=C`: the logP was determined as 3.23.

In the case of `CC(C)SC(C)C`, the logP worked out at 2.84.

`Nc1ccc2ccccc2c1S(=O)(=O)O`: the logP was -1.16.

In the case of `CNP(=O)(OC)Oc1ccc(C(C)(C)C)cc1Cl` (configuration not stated), the logP came to 3.42.

The compound `CN1C(=O)CC(=O)NC1=O` returned a logP of -0.85.

`O=C(O)COc1ccc2c(c1)CCC2` displayed a logP of 2.33.

Regarding `CC(=O)NO`, the logP was -1.59.

On to `S=C(N/N=C/c1cc[nH]c1)Nc1ccccc1`, for which the logP was found to be 3.73.

For `COC(=O)COc1ccccc1`, the logP is 1.41.

The compound `CCSC` registered a logP of 1.54.

For `Cc1cccc(C=C(C(N)=O)C(N)=O)c1`, the logP was 0.4.

`CNC(=O)OCc1cccc(COC(=O)NC)n1` yielded a logP of 0.24.

As to `CCOC(=O)CBr`, the logP was 1.12.

In turn, `O=C(c1ccccc1)c1ccc(O)cc1` showed a logP of 3.07.

For the compound `CN(Cc1cnc2nc(N)nc(N)c2n1)c1c(Cl)cc(C(=O)N[C@@H](CCC(=O)O)C(=O)O)cc1Cl`, the logP is -0.1.

As to `Cc1cccc(C2CNCCO2)c1` (configuration not stated), the logP is 1.52.

For `N#CCCOc1ccccc1`, the logP turned out to be 1.61.

`O=C(c1ccccc1)c1ccncc1` gave a logP of 1.98.

Take `COC(=O)CNC(=O)c1ccc([N+](=O)[O-])cc1`: the logP worked out at 0.98.

`O=C(NC(CO)C(O)c1ccc(I)cc1)C(Cl)Cl` (configuration not stated) had a logP of 2.22.

The compound `CC(=O)Nc1ccc(S(=O)(=O)F)cc1` showed a logP of 2.17.

In the case of `CCCOc1ccc([N+](=O)[O-])c(S(C)(=O)=O)c1`, the logP stood at 1.1.

The compound `Fc1c(F)c(F)c(F)c(F)c1F` returned a logP of 2.55.

As for `CCCCC1OC(=O)c2ccccc21` (configuration not stated), the logP is 2.8.

For the compound `CCOC(=O)C(=Cc1ccc(F)cc1)C(=O)OCC`, the lipophilicity (logP) turned out to be 3.1.

`CC(C)C(C(=O)OC(C#N)c1cccc(Oc2ccccc2)c1)c1ccc(Cl)cc1` (configuration not stated) yielded a logP of 6.2.

`Cc1ccc(O)c([N+](=O)[O-])c1` registered a logP of 2.37.

`CC(=O)ONc1ccnc2ccccc12` yielded a logP of 0.97.

`CCCC(=NOCC)C1C(=O)CC2(CCC(CC)CC2)OC1=O` (configuration not stated) returned a logP of 4.48.

The compound `COCC(=O)Nc1c(I)c(C(=O)NCC(O)CO)c(I)c(C(=O)N(C)CC(O)CO)c1I` (configuration not stated) gave a logP of -2.05.

Compound `COC(=O)c1ccccc1C(=O)O` displayed a logP of 1.13.

Regarding `CCOc1cccc(OC(=O)NC)c1`, the logP was found to be 1.75.

For the compound `O=C(COC(=O)c1ccccc1)NC1CCCCC1`, the logP is 2.81.

Consider `Nc1ccc(Cl)c(Cl)c1`, for which the logP turned out to be 2.69.

`Cc1cc2nccnc2cc1C` displayed a logP of 2.29.

`CC(=S)Nc1ccccc1` showed a logP of 1.71.

In the case of `Oc1ccc(Nc2ccccc2)cc1`, the logP amounted to 2.82.

As for `CC(=O)N[C@@H](C)C(=O)N[C@@H](CC(C)C)C(=O)N[C@H](C(N)=O)C(C)C` (Ac-Ala-Leu-Val-NH2), the logP is -0.14.

As for `CCOP(=S)(OCC)Oc1ccc(N)cc1`, the logP is 2.6.

The data set is the same for the next values; noted with them: pH 7.2.
As for `COC(=O)C(c1ccccc1)C1CCCCN1` (configuration not stated), the logD was found to be 0.2.

The logP is a log measure of how a compound divides between an organic and an aqueous phase. Low readings indicate a more hydrophilic compound, high ones a more lipophilic compound. What is called logD is lipophilicity at a set pH, counting ionised and neutral species.
